Test results from ChEMBL document CHEMBL3621077, “Synthesis of hybrid anticancer agents based on kinase and histone deacetylase inhibitors” (Medchemcomm, 2014).
Activity calls are given as the source filed them. The rule behind the calls is not given here.

Legend:
[1] = target: Mast/stem cell growth factor receptor Kit (Homo sapiens) (UniProt P10721); experiment: Inhibition of c-kit (unknown origin) at 10 uM
Histone deacetylase 1 = Histone deacetylase 1 (Homo sapiens, UniProt Q13547); experiment: Inhibition of HDAC1 (unknown origin)
Chain of Histone deacetylase 1 (Q13547 whole entry): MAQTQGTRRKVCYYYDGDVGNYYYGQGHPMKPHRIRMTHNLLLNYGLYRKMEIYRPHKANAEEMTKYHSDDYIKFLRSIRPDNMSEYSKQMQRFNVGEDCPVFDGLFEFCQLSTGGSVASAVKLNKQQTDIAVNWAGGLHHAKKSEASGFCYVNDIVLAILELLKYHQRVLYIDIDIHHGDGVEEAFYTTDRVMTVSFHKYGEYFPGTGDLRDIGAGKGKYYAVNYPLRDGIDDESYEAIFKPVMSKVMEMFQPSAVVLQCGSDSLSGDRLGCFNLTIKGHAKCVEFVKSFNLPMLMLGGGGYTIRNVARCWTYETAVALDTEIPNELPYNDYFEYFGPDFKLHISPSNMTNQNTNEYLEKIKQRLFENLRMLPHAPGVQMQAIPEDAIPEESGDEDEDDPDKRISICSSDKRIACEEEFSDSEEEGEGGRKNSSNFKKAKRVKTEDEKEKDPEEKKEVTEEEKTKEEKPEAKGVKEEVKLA

Histone deacetylase 2 = Histone deacetylase 2 (Homo sapiens, UniProt Q92769)
Chain of Histone deacetylase 2 (Q92769 whole entry): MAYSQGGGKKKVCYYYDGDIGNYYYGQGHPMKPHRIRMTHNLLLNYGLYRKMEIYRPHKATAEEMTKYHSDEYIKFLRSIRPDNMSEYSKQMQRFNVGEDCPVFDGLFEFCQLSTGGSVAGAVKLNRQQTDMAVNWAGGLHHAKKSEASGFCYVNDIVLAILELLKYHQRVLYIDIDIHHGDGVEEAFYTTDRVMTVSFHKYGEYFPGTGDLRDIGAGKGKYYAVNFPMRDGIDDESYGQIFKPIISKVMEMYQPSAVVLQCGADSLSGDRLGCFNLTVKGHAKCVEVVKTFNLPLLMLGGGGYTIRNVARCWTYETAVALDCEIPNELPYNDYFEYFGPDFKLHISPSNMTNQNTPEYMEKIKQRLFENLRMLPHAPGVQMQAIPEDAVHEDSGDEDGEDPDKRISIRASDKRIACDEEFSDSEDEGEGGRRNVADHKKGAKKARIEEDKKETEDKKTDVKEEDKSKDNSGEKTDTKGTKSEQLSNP

Histone deacetylase 3 = Histone deacetylase 3 (Homo sapiens, UniProt O15379); experiment: Inhibition of HDAC3 (unknown origin)
Chain of Histone deacetylase 3 (O15379 whole entry): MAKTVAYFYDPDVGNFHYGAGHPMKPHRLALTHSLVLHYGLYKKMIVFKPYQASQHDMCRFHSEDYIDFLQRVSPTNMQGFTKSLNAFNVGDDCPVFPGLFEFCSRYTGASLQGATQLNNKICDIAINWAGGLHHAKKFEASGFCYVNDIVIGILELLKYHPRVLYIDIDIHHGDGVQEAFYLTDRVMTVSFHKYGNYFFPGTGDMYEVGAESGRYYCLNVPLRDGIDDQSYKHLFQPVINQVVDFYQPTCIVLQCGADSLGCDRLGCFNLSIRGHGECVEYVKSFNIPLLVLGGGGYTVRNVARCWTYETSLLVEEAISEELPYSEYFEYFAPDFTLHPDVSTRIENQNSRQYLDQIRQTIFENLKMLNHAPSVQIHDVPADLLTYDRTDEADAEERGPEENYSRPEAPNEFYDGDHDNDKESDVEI

Histone deacetylase 5 = Histone deacetylase 5 (Homo sapiens, UniProt Q9UQL6); experiment: Inhibition of HDAC5 (unknown origin); details: read-out: IC50
Chain of Histone deacetylase 5 (Q9UQL6 whole entry): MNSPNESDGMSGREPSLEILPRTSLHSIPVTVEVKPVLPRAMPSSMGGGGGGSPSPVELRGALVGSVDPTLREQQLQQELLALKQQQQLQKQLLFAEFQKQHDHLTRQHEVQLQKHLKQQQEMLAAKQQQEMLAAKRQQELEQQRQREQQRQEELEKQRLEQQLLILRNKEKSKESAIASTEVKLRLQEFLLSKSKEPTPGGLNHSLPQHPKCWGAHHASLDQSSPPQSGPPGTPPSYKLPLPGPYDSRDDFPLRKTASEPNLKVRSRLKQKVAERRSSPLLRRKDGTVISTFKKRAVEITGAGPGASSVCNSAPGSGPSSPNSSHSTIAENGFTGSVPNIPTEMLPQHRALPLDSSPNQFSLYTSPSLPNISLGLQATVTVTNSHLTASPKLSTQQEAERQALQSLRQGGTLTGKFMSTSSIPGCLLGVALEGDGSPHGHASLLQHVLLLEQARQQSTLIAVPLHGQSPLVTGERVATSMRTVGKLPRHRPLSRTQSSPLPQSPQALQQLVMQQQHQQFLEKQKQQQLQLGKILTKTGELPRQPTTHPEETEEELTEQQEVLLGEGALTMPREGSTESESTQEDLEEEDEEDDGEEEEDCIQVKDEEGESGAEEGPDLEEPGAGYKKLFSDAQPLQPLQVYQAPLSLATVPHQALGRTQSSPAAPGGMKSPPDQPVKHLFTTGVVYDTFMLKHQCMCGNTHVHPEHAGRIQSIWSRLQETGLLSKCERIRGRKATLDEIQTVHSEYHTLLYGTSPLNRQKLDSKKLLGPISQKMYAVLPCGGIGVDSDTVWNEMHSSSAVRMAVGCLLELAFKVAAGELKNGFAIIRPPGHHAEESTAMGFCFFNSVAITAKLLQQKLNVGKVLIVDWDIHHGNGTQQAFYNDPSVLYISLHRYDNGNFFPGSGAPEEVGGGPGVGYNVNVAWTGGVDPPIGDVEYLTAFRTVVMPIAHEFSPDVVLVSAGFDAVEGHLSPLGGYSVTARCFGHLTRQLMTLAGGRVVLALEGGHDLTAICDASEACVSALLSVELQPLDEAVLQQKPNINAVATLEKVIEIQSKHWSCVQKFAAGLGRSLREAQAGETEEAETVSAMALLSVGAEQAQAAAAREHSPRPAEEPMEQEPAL

Histone deacetylase 7 = target: T1, Histone deacetylase 7 (Homo sapiens, UniProt Q8WUI4); experiment: Inhibition of HDAC7 (unknown origin)
T1 sequence (Q8WUI4 whole entry): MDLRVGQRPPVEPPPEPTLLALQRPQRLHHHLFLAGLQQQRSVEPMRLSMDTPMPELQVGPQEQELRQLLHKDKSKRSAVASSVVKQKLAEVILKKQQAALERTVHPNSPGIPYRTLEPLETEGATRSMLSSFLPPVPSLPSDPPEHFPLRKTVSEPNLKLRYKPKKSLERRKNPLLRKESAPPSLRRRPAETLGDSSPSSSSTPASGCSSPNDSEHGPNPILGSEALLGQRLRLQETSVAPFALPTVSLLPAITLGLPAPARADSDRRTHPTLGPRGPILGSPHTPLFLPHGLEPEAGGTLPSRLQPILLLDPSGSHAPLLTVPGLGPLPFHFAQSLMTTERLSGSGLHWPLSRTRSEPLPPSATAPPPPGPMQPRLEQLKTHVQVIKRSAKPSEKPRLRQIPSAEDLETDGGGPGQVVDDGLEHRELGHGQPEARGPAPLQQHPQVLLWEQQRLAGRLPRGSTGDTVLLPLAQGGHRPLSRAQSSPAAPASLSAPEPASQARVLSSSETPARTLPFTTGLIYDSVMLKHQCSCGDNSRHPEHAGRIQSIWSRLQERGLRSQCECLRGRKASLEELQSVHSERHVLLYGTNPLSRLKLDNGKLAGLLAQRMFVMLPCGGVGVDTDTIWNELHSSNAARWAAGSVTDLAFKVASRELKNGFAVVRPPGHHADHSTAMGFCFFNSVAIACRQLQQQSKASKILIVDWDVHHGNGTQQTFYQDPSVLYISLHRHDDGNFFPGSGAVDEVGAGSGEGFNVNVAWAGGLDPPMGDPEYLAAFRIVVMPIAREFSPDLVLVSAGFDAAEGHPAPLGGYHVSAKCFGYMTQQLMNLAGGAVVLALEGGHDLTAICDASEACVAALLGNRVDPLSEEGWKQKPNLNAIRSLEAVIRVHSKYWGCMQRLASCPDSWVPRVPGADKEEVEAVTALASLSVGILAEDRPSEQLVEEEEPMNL

Histone deacetylase 9 = Histone deacetylase 9 (Homo sapiens, UniProt Q9UKV0); experiment: Inhibition of HDAC9 (unknown origin)
Chain of Histone deacetylase 9 (Q9UKV0 whole entry): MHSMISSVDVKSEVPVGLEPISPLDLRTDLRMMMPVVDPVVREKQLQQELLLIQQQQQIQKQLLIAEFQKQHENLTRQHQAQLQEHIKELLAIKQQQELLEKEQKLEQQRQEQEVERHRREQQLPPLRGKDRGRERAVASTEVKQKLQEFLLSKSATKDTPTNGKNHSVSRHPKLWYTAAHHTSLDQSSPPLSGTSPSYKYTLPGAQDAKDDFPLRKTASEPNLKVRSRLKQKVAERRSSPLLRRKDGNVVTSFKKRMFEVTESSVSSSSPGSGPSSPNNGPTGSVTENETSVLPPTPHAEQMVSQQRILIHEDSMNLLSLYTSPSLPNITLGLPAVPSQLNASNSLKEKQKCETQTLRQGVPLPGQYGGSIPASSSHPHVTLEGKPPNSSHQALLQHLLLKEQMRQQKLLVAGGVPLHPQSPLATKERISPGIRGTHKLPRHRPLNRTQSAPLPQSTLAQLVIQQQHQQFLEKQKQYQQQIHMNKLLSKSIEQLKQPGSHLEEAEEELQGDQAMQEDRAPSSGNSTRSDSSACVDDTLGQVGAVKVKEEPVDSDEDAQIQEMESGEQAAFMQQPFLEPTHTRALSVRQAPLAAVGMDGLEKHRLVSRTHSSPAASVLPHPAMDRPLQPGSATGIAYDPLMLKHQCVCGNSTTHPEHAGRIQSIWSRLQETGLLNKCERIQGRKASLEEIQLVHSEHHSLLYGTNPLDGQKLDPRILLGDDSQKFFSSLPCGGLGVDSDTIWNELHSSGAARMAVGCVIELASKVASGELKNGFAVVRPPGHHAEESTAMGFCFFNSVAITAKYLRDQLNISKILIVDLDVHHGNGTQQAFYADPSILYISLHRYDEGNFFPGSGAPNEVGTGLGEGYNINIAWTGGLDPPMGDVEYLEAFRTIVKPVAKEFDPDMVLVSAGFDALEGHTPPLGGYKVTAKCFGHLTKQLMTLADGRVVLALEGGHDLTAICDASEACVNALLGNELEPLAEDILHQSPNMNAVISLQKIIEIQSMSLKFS

Xenopus laevis [2] = species: Xenopus laevis; experiment: Inhibition of angiogenesis in Xenopus laevis embryo heart assessed as decrease in Egfl7 mRNA level at 10 to 100 uM at stage 9 incubated for 72 hrs until stage 38 measured by WISH method; format: functional, organism-based
Xenopus laevis [3] = species: Xenopus laevis; experiment: Inhibition of angiogenesis in Xenopus laevis embryo heart assessed as effect on Egfl7 expression in intersomitic vessels at 100 uM at stage 9 incubated for 72 hrs until stage 38 measured by WISH method; format: functional, organism-based; details: Intersomitic vessel
Xenopus laevis [4] = species: Xenopus laevis; experiment: Inhibition of angiogenesis in Xenopus laevis embryo heart assessed as reduction in tube formation at 100 uM at stage 9 incubated for 72 hrs until stage 38 measured by WISH method; format: functional, organism-based
CCRF-CEM = experiment: Cytotoxicity against human CCRF-CEM cells; format: functional
HL-60(TB) = experiment: Cytotoxicity against human HL-60(TB) cells; format: functional
K562 = experiment: Cytotoxicity against human K562 cells; format: functional
MOLT-4 = experiment: Cytotoxicity against human MOLT4 cells; format: functional
RPMI-8226 = experiment: Cytotoxicity against human RPMI8226 cells; format: functional
SR = experiment: Cytotoxicity against human SR cells; format: functional
A549 = experiment: Cytotoxicity against human A549 cells; format: functional
NCI-H322M = experiment: Cytotoxicity against human NCI-H322M cells; format: functional
NCI-H460 = experiment: Cytotoxicity against human NCI-H460 cells; format: functional
HCC 2998 = experiment: Cytotoxicity against human HCC2998 cells; format: functional
HCT-116 = experiment: Cytotoxicity against human HCT116 cells; format: functional
KM12 = experiment: Cytotoxicity against human KM12 cells; format: functional
SNB-75 = experiment: Cytotoxicity against human SNB75 cells; format: functional
U-251 = experiment: Cytotoxicity against human U251 cells; format: functional
LOX IMVI = experiment: Cytotoxicity against human LOXIMVI cells; format: functional
Malme-3M = experiment: Cytotoxicity against human MALME-3M cells; format: functional
M14 = experiment: Cytotoxicity against human M14 cells; format: functional
MDA-MB-435 = experiment: Cytotoxicity against human MDA-MB-435 cells; format: functional
SK-MEL-28 = experiment: Cytotoxicity against human SK-MEL-28 cells; format: functional
IGROV-1 = experiment: Cytotoxicity against human IGROV1 cells; format: functional
OVCAR-3 = experiment: Cytotoxicity against human OVCAR3 cells; format: functional
786-0 = experiment: Cytotoxicity against human 786-0 cells; format: functional
ACHN = experiment: Cytotoxicity against human ACHN cells; format: functional
CAKI-1 = experiment: Cytotoxicity against human Caki1 cells; format: functional
RXF 393 = experiment: Cytotoxicity against human RXF393 cells; format: functional
SN12C = experiment: Cytotoxicity against human SN12C cells; format: functional
UO-31 = experiment: Cytotoxicity against human UO31 cells; format: functional
DU-145 = experiment: Cytotoxicity against human DU145 cells; format: functional
MCF7 = experiment: Cytotoxicity against human MCF7 cells; format: functional
MDA-MB-231 = experiment: Cytotoxicity against human MDA-MB-231 cells; format: functional
[5] = Cytotoxicity against human Hs 578T cells; format: functional
BT-549 = experiment: Cytotoxicity against human BT549 cells; format: functional
T47D = experiment: Cytotoxicity against human T47D cells; format: functional
MDA-MB-468 = experiment: Cytotoxicity against human MDA-MB-468 cells; format: functional
Xenopus laevis [6] = species: Xenopus laevis; details: at 10 to 100 µM

Chain of Mast/stem cell growth factor receptor Kit (Homo sapiens) (P10721 whole entry): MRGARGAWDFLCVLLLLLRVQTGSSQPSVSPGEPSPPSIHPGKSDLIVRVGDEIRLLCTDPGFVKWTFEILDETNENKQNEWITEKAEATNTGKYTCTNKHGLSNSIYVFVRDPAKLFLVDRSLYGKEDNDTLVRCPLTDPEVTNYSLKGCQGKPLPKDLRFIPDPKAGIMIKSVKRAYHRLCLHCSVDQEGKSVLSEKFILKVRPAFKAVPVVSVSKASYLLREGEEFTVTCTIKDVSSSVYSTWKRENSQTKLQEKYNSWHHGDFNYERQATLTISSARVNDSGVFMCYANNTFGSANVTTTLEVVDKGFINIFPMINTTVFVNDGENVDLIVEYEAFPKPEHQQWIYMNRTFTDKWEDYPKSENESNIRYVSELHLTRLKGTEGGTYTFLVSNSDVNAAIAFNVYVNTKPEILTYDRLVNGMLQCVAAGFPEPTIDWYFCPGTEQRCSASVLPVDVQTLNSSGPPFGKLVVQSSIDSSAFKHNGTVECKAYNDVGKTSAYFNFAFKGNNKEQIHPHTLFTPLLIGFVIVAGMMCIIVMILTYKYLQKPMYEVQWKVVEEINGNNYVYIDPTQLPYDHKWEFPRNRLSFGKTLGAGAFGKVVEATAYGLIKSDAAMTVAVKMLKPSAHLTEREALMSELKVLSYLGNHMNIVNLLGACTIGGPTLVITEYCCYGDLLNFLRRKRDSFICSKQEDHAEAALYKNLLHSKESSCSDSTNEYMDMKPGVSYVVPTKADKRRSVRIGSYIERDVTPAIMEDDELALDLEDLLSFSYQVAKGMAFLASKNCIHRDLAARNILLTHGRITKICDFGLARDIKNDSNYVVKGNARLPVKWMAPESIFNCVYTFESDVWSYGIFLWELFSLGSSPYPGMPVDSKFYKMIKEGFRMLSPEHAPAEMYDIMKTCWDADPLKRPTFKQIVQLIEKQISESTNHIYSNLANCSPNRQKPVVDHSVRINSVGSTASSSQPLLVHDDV

O=C(CCCCCCC(=O)Nc1ccc2c(c1)/C(=C/c1ccc[nH]1)C(=O)N2)NO
inhibition [1]: inactive
IC50 (Histone deacetylase 1): 0.00687 nM
IC50 (Histone deacetylase 2): 1.11 nM
IC50 (Histone deacetylase 3): 0.669 nM
IC50 (Histone deacetylase 5): 850 nM
IC50 (Histone deacetylase 7): Not Active
IC50 (Histone deacetylase 9): Not Active
inhibition (Xenopus laevis [2]): Active
inhibition (Xenopus laevis [3]): inactive
Activity (Xenopus laevis [4]): inactive
GI50 (CCRF-CEM): 102 nM
GI50 (HL-60(TB)): 477 nM
GI50 (K562): 251 nM
GI50 (MOLT-4): 302 nM
GI50 (RPMI-8226): 2920 nM
GI50 (SR): 296 nM
GI50 (A549): 2900 nM
GI50 (NCI-H322M): 1020 nM
GI50 (NCI-H460): 2740 nM
GI50 (HCC 2998): 1640 nM
GI50 (HCT-116): 238 nM
GI50 (KM12): 960 nM
GI50 (SNB-75): 194 nM
GI50 (U-251): 420 nM
GI50 (LOX IMVI): 565 nM
GI50 (Malme-3M): 86 nM
GI50 (M14): 489 nM
GI50 (MDA-MB-435): 341 nM
GI50 (SK-MEL-28): 406 nM
GI50 (IGROV-1): 167 nM
GI50 (OVCAR-3): 3600 nM
GI50 (786-0): 2400 nM
GI50 (ACHN): 1150 nM
GI50 (CAKI-1): 2330 nM
GI50 (RXF 393): 518 nM
GI50 (SN12C): 2190 nM
GI50 (UO-31): 775 nM
GI50 (DU-145): 1020 nM
GI50 (MCF7): 440 nM
GI50 (MDA-MB-231): 1000 nM
GI50 [5]: 1020 nM
GI50 (BT-549): 1940 nM
GI50 (T47D): 45 nM
GI50 (MDA-MB-468): 194 nM
inhibition (Xenopus laevis [6]): Active
